Series [1] deals with T1, human CK2 holoenzyme (Homo sapiens, UniProt P68400). The series is described as follows: biochemical. The settings on record: for inhibition at 10 µM: average percent inhibition at 10 µM.
Series [2] concerns NIH-3T3. The series is described as follows: Cytotoxicity WST-1 assay on NIH-3T3. The format is cell-based, mouse. As to conditions: for EC50: Mus musculus, NIH3T3, 96 h, read-out: EC50 in µM ± SD. An excerpt: (§1) Four cell lines of various origins were used to evaluate the cytotoxicity of our target compounds 5–7. The selected cell lines were (i) NIH-3T3, a cell line originally established from the primary mouse embryonic fibroblast cells, (ii) MEF, primary mouse embryonic fibroblasts (used at their early passages) prepared as previously described, (iii) WI-38, a human diploid cell line derived from normal embryonic lung tissue, and (iv) HEK293T, a transformed variant of the human embryonic kidney cell line HEK293. After 96 h, cytotoxicity was evaluated using the WST-1 assay. […] Seventeen compounds were evaluated on the cell lines and then compared to TBB used as a standard. […]. All cells were grown in DMEM medium supplemented with 10% fetal calf serum, glutamine (2 mM), penicillin (100 U/mL), and streptomycin (50 μg/mL) at 37 °C under a humidified 5% CO2 atmosphere (Gibco). The assays were performed in sterile 96-wells microtiter plates (Falcon). Cells were plated at 500 (NIH-3T3), 750 (WI-38) or 1000 (MEF; HEK293T) cells/100 µL/well. Drug solutions (10 μL per well) of appropriate concentration (prepared by dilution in the culture medium from 2 mM stock acetonitrile solution) were added 24 h after cell seeding. For ellagic acid and emodin, DMSO was used to prepare the stock solution. After 96 h, the cytotoxicity is evaluated using the Cell Proliferation Reagent WST-1 following the procedure described by the manufacturer (Roche Applied Science). The drugs were assayed at 10, 5, 1, 0.2 and 0.04 µM in triplicate. The vehicle was used as control. The experiments were repeated three times.
(In general: Formazan colour is commonly taken as a measure of viable cells.)

The test system of series [3] is WI-38. The experiment in a line: Cytotoxicity WST-1 assay on WI-38. The format is cell-based, human. As to conditions: WI-38, 96 h; for EC50: Homo sapiens, read-out: EC50 in µM ± SD.
Text: as §1

For series [4], the system named is MEF. The series is described as follows: Cytotoxicity WST-1 assay on MEF. The format is cell-based, mouse. The settings on record: 96 h; for EC50: Mus musculus, read-out: EC50 in µM ± SD.
Text: as §1

Series [5] concerns HEK293T. The experiment in a line: Cytotoxicity WST-1 assay on HEK293T. Format: cell-based, human. As to conditions: 96 h; for EC50: Homo sapiens, HEK-293T, read-out: EC50 in µM ± SD.
Text: as §1

Series [6] can be described thus: Cytotoxicity WST-1 assay, statements over the four cell lines. The format is cell-based. The settings on record: mouse (NIH-3T3, MEF) and human (WI-38, HEK293T), WST-1, cell line not specified, read-out: EC50 (cytotoxic activity, over the cell lines).
Text: as §1

For series [7], the target named is T1, human CK2 holoenzyme. The experiment in a line: Mode of inhibition and Ki determination, CE based CK2 activity assay at varied ATP. The format is biochemical. The arrangement: made in house; host or cells: Escherichia coli BL21(DE3), pT7-7 expression system. The settings on record: for IC50: IC50 at varied ATP. On the procedure: For this purpose, reaction rates at different inhibitor concentrations were plotted in a Lineweaver-Burk diagram against the varying ATP concentration, resulting in −1/Kmapp as given by the intercepts with the abscissa in both graphs. For determining the Ki values, Kmapp were plotted against the different inhibitor concentrations as shown for 7a in Figure 6.
For this purpose, enzymatic reactions and IC50 determinations were performed as described in Section 3.3.2., but varying compositions of the assay buffer with respect to the ATP concentration were used. […] For this purpose, reaction velocities at different inhibitor concentrations were plotted in a Lineweaver-Burk diagram against the varied ATP concentrations and the corresponding −1/Kmapp were obtained by the intercepts with the abscissa. Finally the Kmapp values as obtained were plotted against the different inhibitor concentrations. By this method, the Ki values with a negative sign were given by the intercepts of the linear slope with the abscissa.

Molecules are shown by their SMILES. Bounds are passed on as bounds.

T1 sequence (P68400 whole entry): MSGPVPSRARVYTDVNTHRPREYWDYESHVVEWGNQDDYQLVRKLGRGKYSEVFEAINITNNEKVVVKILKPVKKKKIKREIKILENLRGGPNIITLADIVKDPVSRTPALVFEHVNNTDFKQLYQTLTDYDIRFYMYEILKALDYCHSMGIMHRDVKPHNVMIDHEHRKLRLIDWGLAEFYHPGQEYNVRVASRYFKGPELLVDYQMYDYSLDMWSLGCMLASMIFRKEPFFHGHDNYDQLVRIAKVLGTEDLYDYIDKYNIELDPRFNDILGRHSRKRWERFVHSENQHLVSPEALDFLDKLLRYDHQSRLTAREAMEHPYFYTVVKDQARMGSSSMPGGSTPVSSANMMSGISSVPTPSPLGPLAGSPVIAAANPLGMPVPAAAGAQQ
T1 sequence (P67870 whole entry partner): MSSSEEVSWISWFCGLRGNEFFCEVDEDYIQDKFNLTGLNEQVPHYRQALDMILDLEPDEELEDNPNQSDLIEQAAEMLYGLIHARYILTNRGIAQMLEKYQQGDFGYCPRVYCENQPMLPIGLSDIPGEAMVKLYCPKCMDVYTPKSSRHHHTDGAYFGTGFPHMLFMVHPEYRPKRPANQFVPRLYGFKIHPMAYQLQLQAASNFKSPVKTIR

Regarding `CC(C)n1c2c(c3c1-c1ccccc1C3=O)C(=O)CC(c1ccc(F)cc1)C2` (stereo not drawn) [Compound 5d, 7-(4-Fluorophenyl)-5-isopropyl-5,6,7,8-tetrahydroindeno[1,2-b]indole-9,10-dione], the melting point (usually the temperature, or range, at which the solid turns liquid) came to 264 °C. For the same molecule, the inhibition – broadly, the drop in the measured response relative to a control, in per cent – at 10 µM in series [1] worked out at 12%.

In turn, `CC(C)n1c2c(c3c1-c1ccccc1C3=O)C(=O)CC(c1ccccc1)C2` (stereo not drawn) [Compound 5c, 5-Isopropyl-7-phenyl-5,6,7,8-tetrahydroindeno[1,2-b]indole-9,10-dione] registered a melting point of 278 °C. Moreover, the EC50 – broadly, the midpoint of the concentration-response curve – in series [2] was > 10 µM. Also, in series [3], the EC50 is > 10 µM. Moreover, the EC50 in series [4] is > 10 µM. The molecule further had an inhibition at 10 µM in series [1] of 7%. Further, in series [5], the EC50 is > 10 µM.

For `Cc1cc(O)c2c3c(n(C(C)C)c2c1)-c1ccccc1C3=O` [Compound 6a, 9-Hydroxy-5-isopropyl-7-methyl-5H-indeno[1,2-b]indol-10-one], the EC50 in series [2], in series [3], in series [4] and in series [5] was > 10 µM each time.

Molecule `CC(C)c1cc(=O)c2c(c1=O)c1c(=O)c3ccccc3c1n2C(C)C` [Compound 7g, 5,8-Diisopropyl-5H-indeno[1,2-b]indole-6,9,10-trione] yielded a melting point of 226 °C. The EC50 in series [2] turned out to be 1.5 ± 0.8 µM. Besides, the EC50 in series [3] was determined as 2.5 ± 0.4 µM. Also, the EC50 in series [4] was > 10 µM. This molecule gave an inhibition at 10 µM in series [1] of 45%. Moreover, in series [6], the 50% effective concentration (EC50) at 96 h fell in the range of 0.4 to 8.8 µM. Moreover, the half-maximal effective concentration (EC50) in series [5] was determined as 0.4 ± 0.02 µM.

Molecule `CC(C)n1c2c(c3c(O)cc(-c4ccccc4)cc31)C(=O)c1ccccc1-2` [Compound 6c, 9-Hydroxy-5-isopropyl-7-phenyl-5H-indeno[1,2-b]indol-10-one] displayed a melting point of 198 °C. Moreover, the EC50 in series [2] is > 10 µM. In series [3], the EC50 is > 10 µM. The EC50 in series [4] was > 10 µM. Also, the EC50 in series [5] was > 10 µM.

With `Cc1cc(O)c2c(c1)C(=O)c1cc(O)cc(O)c1C2=O` [emodin, reference compound], the EC50 in series [2], in series [3], in series [4] and in series [5] was > 10 µM in each case.

`CC(C)C1CC(=O)c2c3c(n(C(C)C)c2C1)-c1ccccc1C3=O` (stereo not drawn) [Compound 5b, 5,7-Diisopropyl-5,6,7,8-tetrahydroindeno[1,2-b]indole-9,10-dione]: the EC50 in series [2] was > 10 µM; in series [3] it was > 10 µM; in series [4] it was 4.4 ± 0.3 µM; in series [5], > 10 µM. Further, the IC50 in series [1] was 0.61 ± 0.03 µM. Besides, the 50% effective concentration (EC50) at 96 h in series [6] was > 10 µM.

Take `CC1CCc2c(c3c(n2C(C)C)-c2ccccc2C3=O)C1=O` (stereo not drawn) [Compound 5f, 5-Isopropyl-8-methyl-5,6,7,8-tetrahydroindeno[1,2-b]indole-9,10-dione]: the EC50 in series [2], in series [3], in series [4] and in series [5] was > 10 µM each time.

As for `Cc1cc(=O)c2c3c(=O)c4ccccc4c3n(C(C)C)c2c1=O` [Compound 7a, 5-Isopropyl-7-methyl-5H-indeno[1,2-b]indole-6,9,10-trione], the melting point came out at 235 °C. For the same molecule, the affinity in series [7] corresponds to a Ki of 0.144 ± 0.022 µM. In series [7] (fifth of six ATP concentrations ranging from 6 to 600 µM), the IC50 came to 3.32 µM. Further, in series [7] (fourth of six ATP concentrations ranging from 6 to 600 µM), the IC50 was 1.27 µM. The same molecule yielded an IC50 in series [7] (highest of six ATP concentrations, 600 µM) of 5.16 µM. The molecule also had an IC50 in series [7] (lowest of six ATP concentrations, 6 µM) of 0.13 µM. This molecule returned an IC50 in series [7] (second of six ATP concentrations ranging from 6 to 600 µM) of 0.34 µM. Further, the IC50 in series [7] (third of six ATP concentrations ranging from 6 to 600 µM) was found to be 0.43 µM. Further, in series [7] (IC50 increases linearly with ATP concentration), the “mode of CK2 inhibition” value is reported as “ATP competitive”. For the same molecule, the “IC50 at 600 µM ATP compared to IC50 at 6 µM ATP” value in series [7] (fold higher) came to 40 fold. Further, the “EC50 in µM ± SD” value in series [2] (NIH-3T3, 96 h, WST-1) was “not soluble”. In addition, in series [3] (WST-1), the “EC50 in µM ± SD” value is reported as “not soluble”. The “EC50 in µM ± SD” value in series [4] (WST-1) was “not soluble”. In series [1], the IC50 is 0.43 ± 0.12 µM and the inhibition at 10 µM was 87%. For the same molecule, the “EC50 in µM ± SD” value in series [5] (HEK293T, WST-1) is “not soluble”.

Turning to `Brc1c(Br)c(Br)c2[nH]nnc2c1Br` [TBB, reference compound], the EC50 in series [2], in series [3], in series [4] and in series [5] was > 10 µM in each case.

For the molecule `CC(C)n1c2c(c3c(O)cc(-c4ccco4)cc31)C(=O)c1ccccc1-2` [Compound 6e, 7-Furan-2-yl-9-hydroxy-5-isopropyl-5H-indeno[1,2-b]indol-10-one], the melting point stood at 191 °C. Also, in series [2], the EC50 was > 10 µM. Further, the EC50 in series [3] is > 10 µM. In addition, in series [4], the EC50 is > 10 µM. For the same molecule, in series [5], the EC50 was > 10 µM.

`CC(C)C1CCc2c(c3c(n2C(C)C)-c2ccccc2C3=O)C1=O` (stereo not drawn) [Compound 5g, 5,8-Diisopropyl-5,6,7,8-tetrahydroindeno[1,2-b]indole-9,10-dione] gave a melting point of 215 °C. In series [2], the EC50 was > 10 µM. Further, the EC50 in series [3] was > 10 µM. Further, the EC50 in series [4] was > 10 µM. In series [1], this molecule gave an inhibition at 10 µM of 21%. Also, in series [5], the EC50 was > 10 µM.

In turn, `CC(C)n1c2c(c3c1-c1ccccc1C3=O)C(=O)CC(c1ccco1)C2` (stereo not drawn) [Compound 5e, 7-Furan-2-yl-5-isopropyl-5,6,7,8-tetrahydroindeno[1,2-b]indole-9,10-dione] showed a melting point of 233.1 °C. The molecule also showed an inhibition at 10 µM in series [1] of 35%.

Turning to `CC(C)n1c2c(c3c(O)cc(-c4ccc(F)cc4)cc31)C(=O)c1ccccc1-2` [Compound 6d, 7-(4-Fluorophenyl)-9-hydroxy-5-isopropyl-5H-indeno[1,2-b]indol-10-one], the melting point was 208.1 °C. In addition, the EC50 in series [2] was > 10 µM. Further, in series [3], the 50% effective concentration (EC50) was > 10 µM. In addition, the EC50 in series [4] was > 10 µM. Besides, the EC50 in series [5] is > 10 µM.

In turn, `CC(C)c1ccc2c(c1O)c1c(n2C(C)C)-c2ccccc2C1=O` [Compound 6g, 9-Hydroxy-5,8-diisopropyl-5H-indeno[1,2-b]indol-10-one] registered a melting point of 235 °C.

As for `CC(C)n1c2c(=O)c(-c3ccco3)cc(=O)c2c2c(=O)c3ccccc3c21` [Compound 7e, 7-Furan-2-yl-5-isopropyl-5H-indeno[1,2-b]indole-6,9,10-trione], the melting point amounted to 216.1 °C. In series [1], this molecule yielded an IC50 of 1.65 ± 0.14 µM and an inhibition at 10 µM of 82%.

`CC(C)c1cc(O)c2c3c(n(C(C)C)c2c1)-c1ccccc1C3=O` [Compound 6b, 9-Hydroxy-5,7-diisopropyl-5H-indeno[1,2-b]indol-10-one]: the melting point came to 188.1 °C. Also, in series [2], the EC50 was > 10 µM. The EC50 in series [3] was > 10 µM. For the same molecule, the EC50 in series [4] is > 10 µM. In addition, the EC50 in series [5] was > 10 µM.

Regarding `CC1CC(=O)c2c3c(n(C(C)C)c2C1)-c1ccccc1C3=O` (stereo not drawn) [Compound 5a, 5-Isopropyl-7-methyl-5,6,7,8-tetrahydroindeno[1,2-b]indole-9,10-dione], the EC50 in series [2], in series [3], in series [4] and in series [5] was > 10 µM throughout. The EC50 at 96 h in series [6] was > 10 µM.

The record behind these values is paper PMC4491662, “Synthesis, Biological Evaluation and Molecular Modeling of Substituted Indeno[1,2-b]indoles as Inhibitors of Human Protein Kinase CK2” (Pharmaceuticals, 2015).
